Laboratory results published in paper PMC12521730, “Quantitative dual-isotope preclinical SPECT/CT imaging and biodistribution of the mercury-197m/g theranostic pair with [^197m/gHg]HgCl2 and a [^197m/gHg]Hg-tetrathiol complex as a platform for radiopharmaceutical development” (EJNMMI Radiopharmacy and Chemistry, 2025).

Assay: Ex vivo biodistribution (gamma counter)
Type: in vivo, healthy male C57BL/6 mice
Conditions: 2 h post administration
Procedure: For animal injection, the tracer was prepared at high molar activity. Radiolabeling of H4Tetrathiol (10^–2 M in DMSO; 40 μL for imaging, 20 μL for bioD) (or DMSO, for [^197m/gHg]HgCl2 mice) with [^197m/gHg]HgCl2 (imaging: 26.7 MBq total m + g, 62 μL; bioD: 13.04 MBq total m + g, 31 μL) was performed in a mixture of ammonium acetate buffer (1 M; pH 7; 198 μL for imaging or 149 μL for bioD) and 6 M NaOH (72 μL or 38 μL required to achieve a pH of 7.5 after addition of activity, for imaging or BioD labeling, respectively). The reaction was allowed to stand for 1 h at 37 °C and quantitative (> 99%) non-isolated percentage radiochemical yield (%RCY) was confirmed via the iTLC methods mentioned above. Further, 100 µL of the reaction was diluted with 50 µL of PBS Tween-20 (0.01 M sodium phosphate, 0.15 M NaCl, 0.05% Tween-20) for imaging mice, or 50 µL of the reaction was diluted with 100 µL of PBS Tween-20 for BioD mice. The tracers were prepared immediately before injection to avoid radiolysis and minimize the tracer loss to any surfaces due to its lipophilicity. The injected doses of each isomer, ^197mHg and ^197gHg, were quantified by measuring an aliquot of known volume of each tracer preparation via HPGe gamma spectroscopy and decay corrected for time of injection using the Eqs. (1) and (2).
The study was conducted in compliance with the guidelines set by the Canadian Council on Animal Care (CCAC) and approved by the Animal Care Committee (ACC) at the University of British Columbia (A20-0132). A total of eight healthy male C57BL/6 mice weighing approximately 30 g for group 1 and 25 g for group 2 were used in the study. The mice were divided into two experimental groups: group 1 (n = 4) received free [^197m/gHg]HgCl2, while group 2 (n = 4) received [^197m/gHg]Hg-Tetrathiol. Within each group, one mouse was allocated for imaging, while the rest were designated for ex vivo biodistribution analysis. For SPECT imaging, the designated mice were anesthetized using isoflurane via a precision vaporizer. […] Once anesthetized, each imaging mouse received an intravenous (IV) injection via the lateral tail vein of 150 μL of [^197m/gHg]HgCl2 (0.492 MBq ^197mHg + 3.171 MBq ^197gHg) or [^197m/gHg]Hg-Tetrathiol (0.899 MBq ^197mHg + 4.230 MBq ^197gHg) in PBS Tween-20 (0.01 M Na Phosphate, 0.15 M NaCl, 0.05% Tween-20).
Mice received an IV injection of [^197m/gHg]HgCl2 (0.275 MBq ^197mHg + 1.758 MBq ^197gHg, 150 μL) or [^197m/gHg]Hg-Tetrathiol (0.384 MBq ^197mHg + 1.733 MBq ^197gHg, 150 μL) (n = 3 per group) via the lateral tail vein using a Tailveiner restrainer. After the injection, the mice were returned to their experimental cages and allowed unrestricted movement. Biodistribution studies were conducted 2 h after administration. Mice were humanely euthanized with an overdose of isoflurane followed by cardiac puncture to collect blood pool activity. The organs of interest were fully extracted, cleaned of blood without rinsing, weighed, and analysed for radioactivity using a calibrated gamma counter with the 55–93 keV energy window for ^197gHg and the 110–160 keV energy window for ^197mHg (Packard Cobra II, Perkin Elmer, Waltham, MA, USA). The stomach and intestines were carefully cleaned prior to analysis to remove residual contents. For tissues and fluids that could not be fully removed (muscle, blood and bone) activity values were extrapolated based on standardised organ weights for age- and sex-matched mice tables to ensure accurate normalization (Davies and Morris [1993]; Foster et al. [2014]). The stomach and whole intestines were cleaned before analysis. The radioactivity measurements were decay corrected for time of injection using the Eqs. (1) and (2). The results are reported as the percentage of the injected activity per gram of tissue (%IA/g) and percentage of the injected activity per tissue (%IA/organ).

[Cl][Hg][Cl] [[^197m/gHg]HgCl2]
Animal 4 (%IA/g) g: kidneys (Hg-197g): 120 %IA/g
Animal 4 (%IA/g) g: large intestine (Hg-197g): 2.62 %IA/g
Animal 4 (%IA/g) g: liver (Hg-197g): 4.99 %IA/g
Animal 4 (%IA/g) g: lungs (Hg-197g): 3.08 %IA/g
Animal 4 (%IA/g) g: muscle (Hg-197g): 0.53 %IA/g
Animal 4 (%IA/g) g: pancreas (Hg-197g): 1.46 %IA/g
Animal 4 (%IA/g) g: small intestine (Hg-197g): 2.62 %IA/g
Animal 4 (%IA/g) g: spleen (Hg-197g): 3.58 %IA/g
Animal 4 (%IA/g) g: stomach (Hg-197g): 1.76 %IA/g
Animal 4 (%IA/g) g: tail (Hg-197g): 3.76 %IA/g
Animal 4 (%IA/g) g: urine (Hg-197g): 3.49 %IA/g
Average (%IA/Organ): bladder (Hg-197g): 0.06 %IA/Organ
Average (%IA/Organ): blood (Hg-197g): 5.81 %IA/Organ
Average (%IA/Organ): bone (Hg-197g): 4.16 %IA/Organ
Average (%IA/Organ): brain (Hg-197g): 0.05 %IA/Organ
Average (%IA/Organ): feces (Hg-197g): 0.05 %IA/Organ
Average (%IA/Organ): heart (Hg-197g): 0.25 %IA/Organ
Average (%IA/Organ): kidneys (Hg-197g): 48.31 %IA/Organ
Average (%IA/Organ): large intestine (Hg-197g): 0.57 %IA/Organ
Average (%IA/Organ): liver (Hg-197g): 7.78 %IA/Organ
Average (%IA/Organ): lungs (Hg-197g): 0.58 %IA/Organ
Average (%IA/Organ): muscle (Hg-197g): 8.08 %IA/Organ
Average (%IA/Organ): pancreas (Hg-197g): 0.25 %IA/Organ
Average (%IA/Organ): small intestine (Hg-197g): 0.70 %IA/Organ
Average (%IA/Organ): spleen (Hg-197g): 0.31 %IA/Organ
Average (%IA/Organ): stomach (Hg-197g): 0.20 %IA/Organ
Average (%IA/Organ): tail (Hg-197g): 2.59 %IA/Organ
Average (%IA/Organ): urine (Hg-197g): 0.65 %IA/Organ
Average Hg-197g (%IA/g): bladder (Hg-197g): 2.10 %IA/g
Average Hg-197g (%IA/g): blood (Hg-197g): 3.53 %IA/g
Average Hg-197g (%IA/g): bone (Hg-197g): 1.94 %IA/g
Average Hg-197g (%IA/g): brain (Hg-197g): 0.13 %IA/g
Average Hg-197g (%IA/g): feces (Hg-197g): 1.29 %IA/g
Average Hg-197g (%IA/g): heart (Hg-197g): 1.79 %IA/g
Average Hg-197g (%IA/g): kidneys (Hg-197g): 111.17 %IA/g
Average Hg-197g (%IA/g): large intestine (Hg-197g): 2.77 %IA/g
Average Hg-197g (%IA/g): liver (Hg-197g): 5.03 %IA/g
Average Hg-197g (%IA/g): lungs (Hg-197g): 3.83 %IA/g
Average Hg-197g (%IA/g): muscle (Hg-197g): 0.63 %IA/g
Average Hg-197g (%IA/g): pancreas (Hg-197g): 1.48 %IA/g
Average Hg-197g (%IA/g): small intestine (Hg-197g): 3.17 %IA/g
Average Hg-197g (%IA/g): spleen (Hg-197g): 3.93 %IA/g
Average Hg-197g (%IA/g): stomach (Hg-197g): 1.87 %IA/g
Average Hg-197g (%IA/g): tail (Hg-197g): 5.12 %IA/g
Average Hg-197g (%IA/g): urine (Hg-197g): 4.08 %IA/g
Animal 1 (%IA/g) m: bladder (Hg-197m): 1.81 %IA/g
Animal 1 (%IA/g) m: blood (Hg-197m): 8.43 %IA/g
Animal 1 (%IA/g) m: bone (Hg-197m): 3.43 %IA/g
Animal 1 (%IA/g) m: brain (Hg-197m): 0.27 %IA/g
Animal 1 (%IA/g) m: feces (Hg-197m): 1.31 %IA/g
Animal 1 (%IA/g) m: heart (Hg-197m): 3.85 %IA/g
Animal 1 (%IA/g) m: large intestine (Hg-197m): 5.33 %IA/g
Animal 1 (%IA/g) m: lungs (Hg-197m): 8.68 %IA/g
Animal 1 (%IA/g) m: muscle (Hg-197m): 1.38 %IA/g
Animal 1 (%IA/g) m: pancreas (Hg-197m): 2.69 %IA/g
Animal 1 (%IA/g) m: small intestine (Hg-197m): 6.99 %IA/g
Animal 1 (%IA/g) m: spleen (Hg-197m): 8.59 %IA/g
Animal 1 (%IA/g) m: stomach (Hg-197m): 3.64 %IA/g
Animal 1 (%IA/g) m: tail (Hg-197m): 16.30 %IA/g
Animal 1 (%IA/g) m: urine (Hg-197m): 8.15 %IA/g
Animal 2 (%IA/g) m: bladder (Hg-197m): 4.08 %IA/g
Animal 2 (%IA/g) m: blood (Hg-197m): 5.94 %IA/g
Animal 2 (%IA/g) m: bone (Hg-197m): 2.79 %IA/g
Animal 2 (%IA/g) m: brain (Hg-197m): 0.15 %IA/g
Animal 2 (%IA/g) m: feces (Hg-197m): 0.59 %IA/g
Animal 2 (%IA/g) m: heart (Hg-197m): 2.24 %IA/g
Animal 2 (%IA/g) m: large intestine (Hg-197m): 3.94 %IA/g
Animal 2 (%IA/g) m: liver (Hg-197m): 10.33 %IA/g
Animal 2 (%IA/g) m: lungs (Hg-197m): 4.50 %IA/g
Animal 2 (%IA/g) m: muscle (Hg-197m): 0.74 %IA/g
Animal 2 (%IA/g) m: pancreas (Hg-197m): 1.94 %IA/g
Animal 2 (%IA/g) m: small intestine (Hg-197m): 4.20 %IA/g
Animal 2 (%IA/g) m: spleen (Hg-197m): 4.74 %IA/g
Animal 2 (%IA/g) m: stomach (Hg-197m): 2.42 %IA/g
Animal 2 (%IA/g) m: tail (Hg-197m): 7.26 %IA/g
Animal 2 (%IA/g) m: urine (Hg-197m): 5.31 %IA/g
Animal 3 (%IA/g) m: bladder (Hg-197m): 2.14 %IA/g
Animal 3 (%IA/g) m: blood (Hg-197m): 5.50 %IA/g
Animal 3 (%IA/g) m: bone (Hg-197m): 2.67 %IA/g
Animal 3 (%IA/g) m: brain (Hg-197m): 0.17 %IA/g
Animal 3 (%IA/g) m: feces (Hg-197m): 3.93 %IA/g
Animal 3 (%IA/g) m: heart (Hg-197m): 2.10 %IA/g
Animal 3 (%IA/g) m: large intestine (Hg-197m): 3.68 %IA/g
Animal 3 (%IA/g) m: liver (Hg-197m): 10.14 %IA/g
Animal 3 (%IA/g) m: lungs (Hg-197m): 5.07 %IA/g
Animal 3 (%IA/g) m: muscle (Hg-197m): 0.79 %IA/g
Animal 3 (%IA/g) m: pancreas (Hg-197m): 2.04 %IA/g
Animal 3 (%IA/g) m: small intestine (Hg-197m): 4.50 %IA/g
Animal 3 (%IA/g) m: spleen (Hg-197m): 4.18 %IA/g
Animal 3 (%IA/g) m: stomach (Hg-197m): 2.28 %IA/g
Animal 3 (%IA/g) m: tail (Hg-197m): 7.21 %IA/g
Animal 3 (%IA/g) m: urine (Hg-197m): 5.63 %IA/g
Animal 4 (%IA/g) m: bladder (Hg-197m): 4.20 %IA/g
Animal 4 (%IA/g) m: blood (Hg-197m): 4.96 %IA/g
Animal 4 (%IA/g) m: bone (Hg-197m): 2.78 %IA/g
Animal 4 (%IA/g) m: brain (Hg-197m): 0.17 %IA/g
Animal 4 (%IA/g) m: feces (Hg-197m): 1.53 %IA/g
Animal 4 (%IA/g) m: heart (Hg-197m): 2.14 %IA/g
Animal 4 (%IA/g) m: large intestine (Hg-197m): 3.97 %IA/g
Animal 4 (%IA/g) m: liver (Hg-197m): 10.31 %IA/g
Animal 4 (%IA/g) m: lungs (Hg-197m): 4.53 %IA/g
Animal 4 (%IA/g) m: muscle (Hg-197m): 0.81 %IA/g
Animal 4 (%IA/g) m: pancreas (Hg-197m): 2.24 %IA/g
Animal 4 (%IA/g) m: small intestine (Hg-197m): 3.96 %IA/g
Animal 4 (%IA/g) m: spleen (Hg-197m): 5.42 %IA/g
Animal 4 (%IA/g) m: stomach (Hg-197m): 2.56 %IA/g
Animal 4 (%IA/g) m: tail (Hg-197m): 5.98 %IA/g
Animal 4 (%IA/g) m: urine (Hg-197m): 5.02 %IA/g
Average Hg-197m (%IA/g): bladder (Hg-197m): 3.06 %IA/g
Average Hg-197m (%IA/g): blood (Hg-197m): 6.21 %IA/g
Average Hg-197m (%IA/g): bone (Hg-197m): 2.92 %IA/g
Average Hg-197m (%IA/g): brain (Hg-197m): 0.19 %IA/g
Average Hg-197m (%IA/g): feces (Hg-197m): 1.84 %IA/g
Average Hg-197m (%IA/g): heart (Hg-197m): 2.58 %IA/g
Average Hg-197m (%IA/g): large intestine (Hg-197m): 4.23 %IA/g
Average Hg-197m (%IA/g): liver (Hg-197m): 10.26 %IA/g
Average Hg-197m (%IA/g): lungs (Hg-197m): 5.70 %IA/g
Average Hg-197m (%IA/g): muscle (Hg-197m): 0.93 %IA/g
Average Hg-197m (%IA/g): pancreas (Hg-197m): 2.23 %IA/g
Average Hg-197m (%IA/g): small intestine (Hg-197m): 4.92 %IA/g
Average Hg-197m (%IA/g): spleen (Hg-197m): 5.73 %IA/g
Average Hg-197m (%IA/g): stomach (Hg-197m): 2.72 %IA/g
Average Hg-197m (%IA/g): tail (Hg-197m): 9.19 %IA/g
Average Hg-197m (%IA/g): urine (Hg-197m): 6.03 %IA/g
